Source: ChEMBL document CHEMBL1201862, “PubChem BioAssay data set” (2004)
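Exposure lasted 48 hours, with cells grown in 96-well plates and compounds tested at five concentrations. The concentration for 50% growth inhibition is given as GI50.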 Active and inactive are the calls of the source. No stated cut-off is given here; in the data, active = GI50 up to about 1.1 µM and inactive = higher.

Tests used:
Test in all cases: DTP human tumour cell line panel, 48 h
SNB-19 = test system: SNB-19
OVCAR-4 = test system: OVCAR-4
HCT-116 = test system: HCT-116
HOP-62 = test system: HOP-62
SN12C = test system: SN12C
OVCAR-3 = test system: OVCAR-3
ACHN = test system: ACHN
HL-60 = test system: HL-60
BT-549 = test system: BT-549
CCRF-CEM = test system: CCRF-CEM
Malme-3M = test system: Malme-3M
NCI/ADR-RES = test system: NCI/ADR-RES
COLO 205 = test system: COLO 205
U-251 = test system: U-251
SF-295 = test system: SF-295
EKVX = test system: EKVX
SF-268 = test system: SF-268
SF-539 = test system: SF-539
MDA-MB-231 = test system: MDA-MB-231
RXF 393 = test system: RXF 393

SMILES | GI50 (SNB-19) | GI50 (OVCAR-4) | GI50 (HCT-116) | GI50 (HOP-62) | GI50 (SN12C) | GI50 (OVCAR-3) | GI50 (ACHN) | GI50 (HL-60) | GI50 (BT-549) | GI50 (CCRF-CEM) | GI50 (Malme-3M) | GI50 (NCI/ADR-RES) | GI50 (COLO 205) | GI50 (U-251) | GI50 (SF-295) | GI50 (EKVX) | GI50 (SF-268) | GI50 (SF-539) | GI50 (MDA-MB-231) | GI50 (RXF 393)
CC(=O)Oc1c(C)cc(-c2cc(C)c(OC(C)=O)c(C)c2)cc1C | 70.1 µM (inactive) | 82.6 µM (inactive) | 41.1 µM (inactive) | 45.7 µM (inactive) | 47.1 µM (inactive) | 90.2 µM (inactive) | 33 µM (inactive) | 35.2 µM (inactive) | 10.8 µM (inactive) | 31 µM (inactive) | 89.3 µM (inactive) | 21.1 µM (inactive) | 50.4 µM (inactive) | 15 µM (inactive) | 23.7 µM (inactive) | 37.3 µM (inactive) | 36 µM (inactive) |  |  | 
Nc1ncnc2c1ncn2C1OC(COC2C(CO)OC(OC(C(=O)O)C(O)C(OP(=O)(O)O)C(O)C(=O)O)C(O)C2O)C(O)C1O (stereo not drawn) | > 100 µM (inactive) | > 100 µM (inactive) | > 100 µM (inactive) | > 100 µM (inactive) |  | > 100 µM (inactive) | 37.7 µM (inactive) | > 100 µM (inactive) | > 100 µM (inactive) | > 100 µM (inactive) | 45.7 µM (inactive) |  | > 100 µM (inactive) | > 100 µM (inactive) | > 100 µM (inactive) | > 100 µM (inactive) | > 100 µM (inactive) | 90.2 µM (inactive) | > 100 µM (inactive) | 
COc1ccc(C(=O)C(C(=O)CC(=O)Nc2cccc(C(F)(F)F)c2)c2ccc(OC)cc2)cc1 (stereo not drawn) | > 100 µM (inactive) | > 100 µM (inactive) | > 100 µM (inactive) | > 100 µM (inactive) | > 100 µM (inactive) | > 100 µM (inactive) | > 100 µM (inactive) | > 100 µM (inactive) |  | > 100 µM (inactive) | > 100 µM (inactive) |  | > 100 µM (inactive) | > 100 µM (inactive) | > 100 µM (inactive) | > 100 µM (inactive) | > 100 µM (inactive) | > 100 µM (inactive) |  | 78.9 µM (inactive)
CCC12C=C(C(=O)OC)N3c4ccccc4C4CCN(CCC1)C2C43 (stereo not drawn) | 72.4 µM (inactive) | 97.9 µM (inactive) | 68.7 µM (inactive) | 38.9 µM (inactive) | 83.8 µM (inactive) | > 100 µM (inactive) | 62.5 µM (inactive) | 78.9 µM (inactive) |  | > 100 µM (inactive) | 18.8 µM (inactive) |  | 31.9 µM (inactive) | 82.4 µM (inactive) | 98.2 µM (inactive) | > 100 µM (inactive) | > 100 µM (inactive) | > 100 µM (inactive) |  | 53.2 µM (inactive)
O=C(Nc1ccccc1C(=O)O)C(=O)C(C(=O)c1ccccc1-c1ccccc1)C1OC(=O)c2ccccc21 (stereo not drawn) | 16.1 µM (inactive) | 35 µM (inactive) | 22 µM (inactive) | 18 µM (inactive) | 17.1 µM (inactive) | 16.6 µM (inactive) | 34 µM (inactive) | 23.9 µM (inactive) |  | 22.1 µM (inactive) | 12.2 µM (inactive) |  | 24 µM (inactive) | 15.4 µM (inactive) | 25.2 µM (inactive) | 23.4 µM (inactive) | 16.8 µM (inactive) | 16.6 µM (inactive) |  | 13.6 µM (inactive)
C[C@]12CCC(=O)C(OC(=O)c3ccc([N+](=O)[O-])cc3)=C1CCC2=O | > 100 µM (inactive) | > 100 µM (inactive) | > 100 µM (inactive) | > 100 µM (inactive) | > 100 µM (inactive) | > 100 µM (inactive) | > 100 µM (inactive) | > 100 µM (inactive) |  | > 100 µM (inactive) | > 100 µM (inactive) |  | 98.6 µM (inactive) | > 100 µM (inactive) | > 100 µM (inactive) | > 100 µM (inactive) | > 100 µM (inactive) | > 100 µM (inactive) |  | > 100 µM (inactive)
COC(=O)C1CC2CC(=NNC(N)=O)CC2C1 (stereo not drawn) | > 100 µM (inactive) | > 100 µM (inactive) | > 100 µM (inactive) | > 100 µM (inactive) | > 100 µM (inactive) | > 100 µM (inactive) | > 100 µM (inactive) | > 100 µM (inactive) |  | > 100 µM (inactive) | > 100 µM (inactive) |  | > 100 µM (inactive) | > 100 µM (inactive) | > 100 µM (inactive) | > 100 µM (inactive) | > 100 µM (inactive) | > 100 µM (inactive) |  | > 100 µM (inactive)
C[n+]1c(-c2ccccc2)cc2/c(=C\c3ccccc3)c3ccccc3n21 | 0.731 µM (active) | 1.62 µM (inactive) | 1.25 µM (inactive) | 2.43 µM (inactive) | 0.308 µM (active) | 1.34 µM (inactive) | 3.13 µM (inactive) | 0.0452 µM (active) |  | 0.582 µM (active) | 1.14 µM (inactive) | 14.6 µM (inactive) | 0.339 µM (active) | 0.233 µM (active) | 4.93 µM (inactive) | 1.93 µM (inactive) | 0.593 µM (active) | 0.908 µM (active) | 0.661 µM (active) | 1.36 µM (inactive)
